“And” between values parts separate entries of the source, which are not always exact repeats. Identical values can stand only once.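 The compound was tested at five concentrations on cells cultured in 96-well plates, with a 48-hour exposure period. GI50 = concentration required for 50% inhibition of growth.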 The source made the active and inactive calls. No stated cut-off is given here; in the data, active = GI50 up to about 1.1 µM and inactive = higher.
Tests used:
Assay in all cases: NCI-60 cell line screen, 48 h
HOP-62 = tested on: HOP-62
NCI-H522 = tested on: NCI-H522
KM12 = tested on: KM12
Malme-3M = tested on: Malme-3M
OVCAR-8 = tested on: OVCAR-8
SF-539 = tested on: SF-539
SN12C = tested on: SN12C
MDA-MB-435 = tested on: MDA-MB-435
M14 = tested on: M14
NCI-H23 = tested on: NCI-H23
HCC 2998 = tested on: HCC 2998
A549 = tested on: A549
HOP-92 = tested on: HOP-92
786-0 = tested on: 786-0
RXF 393 = tested on: RXF 393
LOX IMVI = tested on: LOX IMVI
HL-60 = tested on: HL-60
UACC-62 = tested on: UACC-62
HCT-15 = tested on: HCT-15
IGROV-1 = tested on: IGROV-1

| Compound | GI50 (HOP-62) | GI50 (NCI-H522) | GI50 (KM12) | GI50 (Malme-3M) | GI50 (OVCAR-8) | GI50 (SF-539) | GI50 (SN12C) | GI50 (MDA-MB-435) | GI50 (M14) | GI50 (NCI-H23) | GI50 (HCC 2998) | GI50 (A549) | GI50 (HOP-92) | GI50 (786-0) | GI50 (RXF 393) | GI50 (LOX IMVI) | GI50 (HL-60) | GI50 (UACC-62) | GI50 (HCT-15) [µM] | GI50 (IGROV-1) |
| --- | --- | --- | --- | --- | --- | --- | --- | --- | --- | --- | --- | --- | --- | --- | --- | --- | --- | --- | --- | --- |
| Cc1c(Cl)cccc1NC(=O)CC1Sc2ccccc2NC1=O (stereo unspecified) | 10.1 µM (inactive) and 18.2 µM (inactive) | 27.7 µM (inactive) and 21 µM (inactive) | 11 µM (inactive) and 16.6 µM (inactive) | 19.5 µM (inactive) and 18.5 µM (inactive) | 16.4 µM (inactive) and 20.8 µM (inactive) | 17.9 µM (inactive) and 20.9 µM (inactive) | 25.1 µM (inactive) and 47.2 µM (inactive) | 2.82 µM (inactive) | 32.3 µM (inactive) and 22.6 µM (inactive) | 35.9 µM (inactive) and 24 µM (inactive) | 14.3 µM (inactive) and 12 µM (inactive) | 19.8 µM (inactive) and 29.2 µM (inactive) | 17.7 µM (inactive) and 33 µM (inactive) | 24 µM (inactive) and 17.4 µM (inactive) | 8.39 µM (inactive) and 16 µM (inactive) | 24.8 µM (inactive) and 33.8 µM (inactive) | 12.3 µM (inactive) and 8.43 µM (inactive) | – | – | – |
| Nc1ccccc1.O=P(O)(OP(=O)(O)c1ccccc1)c1ccccc1 | > 100 µM (inactive) | > 100 µM (inactive) | > 100 µM (inactive) | > 100 µM (inactive) | > 100 µM (inactive) | – | > 100 µM (inactive) | > 100 µM (inactive) | > 100 µM (inactive) | > 100 µM (inactive) | > 100 µM (inactive) | > 100 µM (inactive) | > 100 µM (inactive) | > 100 µM (inactive) | > 100 µM (inactive) | > 100 µM (inactive) | 65.3 µM (inactive) | > 100 µM (inactive) | 89.3 | > 100 µM (inactive) |
| COC(=O)CCC1(O)C=CC(=O)C=C1 | > 100 µM (inactive) | 14.1 µM (inactive) | > 100 µM (inactive) | 17 µM (inactive) | 31.7 µM (inactive) | 25.8 µM (inactive) | 57.1 µM (inactive) | > 100 µM (inactive) | 40.8 µM (inactive) | 33.7 µM (inactive) | 63.5 µM (inactive) | > 100 µM (inactive) | 65.6 µM (inactive) | 36.4 µM (inactive) | 23.6 µM (inactive) | 30.3 µM (inactive) | – | 20.3 µM (inactive) | 18.4 | 20.6 µM (inactive) |
| Cc1cn(C2CC(ON3C(=O)c4ccccc4C3=O)C(CO)O2)c(=O)[nH]c1=O (stereo unspecified) | – | > 10 µM (inactive) | > 10 µM (inactive) | > 10 µM (inactive) | > 10 µM (inactive) | > 10 µM (inactive) | > 10 µM (inactive) | > 10 µM (inactive) | > 10 µM (inactive) | > 10 µM (inactive) | > 10 µM (inactive) | > 10 µM (inactive) | 0.855 µM (active) | > 10 µM (inactive) | > 10 µM (inactive) | > 10 µM (inactive) | > 10 µM (inactive) | > 10 µM (inactive) | > 10 | > 10 µM (inactive) |
| Cc1cc(OCc2nnc3n2N=C(c2cc(F)c(Cl)cc2Cl)/C(=C/c2ccc(Cl)cc2)S3)ccc1Cl | 43.1 µM (inactive) | 14.7 µM (inactive) | 22.9 µM (inactive) | – | 18.8 µM (inactive) | 44.9 µM (inactive) | – | 24.2 µM (inactive) | 25 µM (inactive) | 27.4 µM (inactive) | 19.6 µM (inactive) | – | 18.1 µM (inactive) | 28.1 µM (inactive) | 17 µM (inactive) | 21.9 µM (inactive) | 1.91 µM (inactive) | – | 19.7 | 20.9 µM (inactive) |
| CN(C)c1ccc(C2CC(c3ccc4ccccc4c3O)=NN2c2ccc([N+](=O)[O-])cc2[N+](=O)[O-])cc1 (stereo unspecified) | 75.5 µM (inactive) | 21 µM (inactive) | 24.4 µM (inactive) | 19.2 µM (inactive) | 56 µM (inactive) | 50.9 µM (inactive) | 50.7 µM (inactive) | 17.5 µM (inactive) | 63 µM (inactive) | 17 µM (inactive) | 71 µM (inactive) | 32.3 µM (inactive) | > 100 µM (inactive) | > 100 µM (inactive) | 41.2 µM (inactive) | – | – | 14.3 µM (inactive) | 61.5 | 26.2 µM (inactive) |
| O=C(Nc1ccc(Cl)cc1Cl)c1cc2nc3ccccc3c(=O)n2c2ccccc12 | > 10 µM (inactive) | > 10 µM (inactive) | > 10 µM (inactive) | > 10 µM (inactive) | > 10 µM (inactive) | > 10 µM (inactive) | – | > 10 µM (inactive) | > 10 µM (inactive) | > 10 µM (inactive) | > 10 µM (inactive) | > 10 µM (inactive) | > 10 µM (inactive) | > 10 µM (inactive) | > 10 µM (inactive) | > 10 µM (inactive) | > 10 µM (inactive) | > 10 µM (inactive) | > 10 | > 10 µM (inactive) |
| CN1Cc2ccccc2/C=C\c2ccccc21 | > 100 µM (inactive) | 37.5 µM (inactive) | 52.4 µM (inactive) | 51.4 µM (inactive) | > 100 µM (inactive) | > 100 µM (inactive) | 83.4 µM (inactive) | 39.8 µM (inactive) | 46.8 µM (inactive) | 62.1 µM (inactive) | 47.9 µM (inactive) | 50.1 µM (inactive) | 28 µM (inactive) | 95.9 µM (inactive) | 30.1 µM (inactive) | 72.9 µM (inactive) | – | 60.8 µM (inactive) | 52.4 | > 100 µM (inactive) |

— ChEMBL document CHEMBL1201862, “PubChem BioAssay data set” (2004)
